Source: patent US20090239881A1 (Boehringer Ingelheim International GmbH, priority 2006, published 2009)

Columns and labels:
[1] = tested on: Sexual Disorders and/or Dysfunctions; experiment: Studies of female patients suffering from Sexual Disorders; format: in vivo, human
[2] = biological target: T1, 5-HT1A receptor (Homo sapiens, UniProt P08908); settings: cited from earlier work
T1 sequence (P08908 1-422): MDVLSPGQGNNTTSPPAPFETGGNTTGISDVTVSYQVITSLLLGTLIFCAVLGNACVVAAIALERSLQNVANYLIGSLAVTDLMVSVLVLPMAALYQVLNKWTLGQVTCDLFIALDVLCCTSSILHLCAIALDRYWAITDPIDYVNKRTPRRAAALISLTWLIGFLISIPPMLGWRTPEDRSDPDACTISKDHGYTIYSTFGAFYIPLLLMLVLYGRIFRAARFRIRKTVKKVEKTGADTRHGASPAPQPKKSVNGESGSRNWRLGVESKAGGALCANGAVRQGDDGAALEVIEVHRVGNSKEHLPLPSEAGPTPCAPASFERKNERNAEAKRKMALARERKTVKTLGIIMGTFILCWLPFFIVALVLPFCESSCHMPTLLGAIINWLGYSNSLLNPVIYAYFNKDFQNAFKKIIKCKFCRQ

[3] = tested on: 5-HT2-receptor; settings: cited from earlier work
[4] = known use of flibanserin; cited from earlier work
[5] = after ingestion; cited from earlier work

| Structure (SMILES) | effect on Sexual Disorders and/or Dysfunctions [1] | affinity for the 5-HT1A receptor [2] | affinity for the 5-HT2-receptor [3] | side effects (sedation) [4] | physiological half-life [5] |
| --- | --- | --- | --- | --- | --- |
| O=c1[nH]c2ccccc2n1CCN1CCN(c2cccc(C(F)(F)F)c2)CC1 [flibanserin, 1-[2-(4-(3-trifluoromethyl-phenyl)piperazin-1-yl)ethyl]-2,3-dihydro-1H-benzimidazol-2-one] | positive effect | shows affinity | shows affinity | sometimes mild or moderate symptoms such as sedation may occur |  |
| Cn1c(=O)c2c(ncn2C)n(C)c1=O [caffeine] |  |  |  |  | three and a half to six |
